Data: ChEMBL document CHEMBL5608173, “Discovery of novel natural-product-derived mutant isocitrate dehydrogenases 1 inhibitors: Structure-based virtual screening, biological evaluation and structure-activity relationship study” (Eur J Med Chem, 2024)
Active and inactive are the calls of the source. No cut-off for these calls is given here.

Experiments:
[1] = system: HT-1080; assay: Cell cycle arrest in human HT-1080 cells assessed as G2 phase cells at 2 uM incubated for 24 hrs by PI staining based flow cytometric analysis (reference value: 23.6 %); type: functional
[2] = system: HT-1080; assay: Cell cycle arrest in human HT-1080 cells assessed as S phase cells at 8 uM incubated for 24 hrs by PI staining based flow cytometric analysis (reference value: 18.3 %); type: functional
[3] = system: Isocitrate dehydrogenase [NADP] cytoplasmic (Homo sapiens), O75874 [R132H]; assay: Inhibition of recombinant human IDH1 R132H mutant extracted from Escherichia coli BL21 (DE3) cells using alpha-ketoglutarate as substrate at 0.2 uM incubated for 60 mins in presence of NADPH by absorbance based assay relative to control
[4] = system: Isocitrate dehydrogenase [NADP] cytoplasmic (Homo sapiens), O75874 [R132C]; assay: Inhibition of recombinant human IDH1 R132C mutant extracted from Escherichia coli BL21 (DE3) cells using alpha-ketoglutarate as substrate at 0.2 uM incubated for 60 mins in presence of NADPH by absorbance based assay relative to control
[5] = molecular target: Isocitrate dehydrogenase [NADP] cytoplasmic (Homo sapiens, UniProt O75874, R132H); assay: Inhibition of IDH1 R132H mutant in human U-87 MG cells assessed as reduction in 2-HG level incubated for 48 hrs in presence of NAD+ by resazurin fluorescence dye based Sigma MAK320-1 assay kit analysis; type: cell-based
[6] = system: L02; assay: Cytotoxicity against human L02 cells assessed as reduction in cell viability at 0.5 to 2 uM; type: toxicity, cell-based; settings: l02, 2 µM, dose 0.5-2 µM
[7] = system: U-87 MG; assay: Antiproliferative activity against human U-87 MG cells assessed as reduction in cell viability incubated for 72 hrs by MTT assay; type: functional, U-87MG ATCC
[8] = system: HT-1080; assay: Induction of apoptosis in human HT-1080 cells assessed as early apoptotic cells at 2 uM incubated for 48 hrs by Annexin V-FITC/PI staining based flow cytometric analysis (reference value: 2.33 %); type: functional
[9] = system: HT-1080; assay: Induction of apoptosis in human HT-1080 cells assessed as viable cells at 4 uM incubated for 48 hrs by Annexin V-FITC/PI staining based flow cytometric analysis (reference value: 96.07 %); type: functional; settings: read-out: Activity
[10] = system: HT-1080; assay: Induction of apoptosis in human HT-1080 cells assessed as viable cells at 8 uM incubated for 48 hrs by Annexin V-FITC/PI staining based flow cytometric analysis (reference value: 96.07 %); type: functional; settings: read-out: Activity
[11] = system: HT-1080; assay: Induction of apoptosis in human HT-1080 cells assessed as necrotic cells at 8 uM incubated for 48 hrs by Annexin V-FITC/PI staining based flow cytometric analysis (reference value: 0.45 %); type: functional
[12] = system: HT-1080; assay: Induction of apoptosis in human HT-1080 cells assessed as early apoptotic cells at 6 uM incubated for 12 hrs by Annexin V-FITC/PI staining based flow cytometric analysis (reference value: 2.36 %); type: functional
[13] = system: HT-1080; assay: Induction of apoptosis in human HT-1080 cells assessed as viable cells at 6 uM incubated for 24 hrs by Annexin V-FITC/PI staining based flow cytometric analysis (reference value: 96.65 %); type: functional; settings: read-out: Activity
[14] = system: HT-1080; assay: Induction of apoptosis in human HT-1080 cells assessed as viable cells at 6 uM incubated for 48 hrs by Annexin V-FITC/PI staining based flow cytometric analysis (reference value: 96.65 %); type: functional; settings: read-out: Activity
[15] = system: HT-1080; assay: Induction of apoptosis in human HT-1080 cells assessed as early apoptotic cells at 6 uM incubated for 48 hrs by Annexin V-FITC/PI staining based flow cytometric analysis (reference value: 2.36 %); type: functional
[16] = system: HT-1080; assay: Induction of apoptosis in human HT-1080 cells assessed as late apoptotic cells at 6 uM incubated for 48 hrs by Annexin V-FITC/PI staining based flow cytometric analysis (reference value: 0.60 %); type: functional
[17] = system: HT-1080; assay: Cell cycle arrest in human HT-1080 cells assessed as G1 phase cells at 2 uM incubated for 24 hrs by PI staining based flow cytometric analysis (reference value: 58.1 %); type: functional
[18] = system: HT-1080; assay: Cell cycle arrest in human HT-1080 cells assessed as G1 phase cells at 4 uM incubated for 24 hrs by PI staining based flow cytometric analysis (reference value: 58.1 %); type: functional
[19] = system: HT-1080; assay: Cell cycle arrest in human HT-1080 cells assessed as S phase cells at 4 uM incubated for 24 hrs by PI staining based flow cytometric analysis (reference value: 18.3 %); type: functional
[20] = system: HT-1080; assay: Cell cycle arrest in human HT-1080 cells assessed as G1 phase cells at 8 uM incubated for 24 hrs by PI staining based flow cytometric analysis (reference value: 58.1 %); type: functional
[21] = system: HT-1080; assay: Cell cycle arrest in human HT-1080 cells assessed as G2 phase cells at 8 uM incubated for 24 hrs by PI staining based flow cytometric analysis (reference value: 23.6 %); type: functional
[22] = system: HT-1080; assay: Cell cycle arrest in human HT-1080 cells assessed as G1 phase cells at 10 uM incubated for 24 hrs by PI staining based flow cytometric analysis (reference value: 58.1 %); type: functional
[23] = Toxicity in Sprague-Dawley rat assessed as observable clinical signs at 0.5 mg/kg, iv measured after 24 hrs; type: organism-based; settings: in vivo
[24] = Toxicity in Sprague-Dawley rat assessed as observable clinical signs at 5 mg/kg, po measured after 24 hrs; type: organism-based; settings: in vivo
[25] = Cmax in Sprague-Dawley rat at 0.5 mg/kg, iv measured after 24 hrs by LC-MS/MS analysis; type: ADME, organism-based; settings: in vivo
[26] = Clearance in Sprague-Dawley rat at 0.5 mg/kg, iv measured after 24 hrs by LC-MS/MS analysis; type: ADME, organism-based; settings: in vivo
[27] = Tmax in Sprague-Dawley rat at 5 mg/kg, po measured after 24 hrs by LC-MS/MS analysis; type: ADME, organism-based; settings: in vivo
[28] = Cmax in Sprague-Dawley rat at 5 mg/kg, po measured after 24 hrs by LC-MS/MS analysis; type: ADME, organism-based; settings: in vivo
[29] = AUC (0 to t) in Sprague-Dawley rat at 5 mg/kg, po measured after 24 hrs by LC-MS/MS analysis; type: ADME, organism-based; settings: in vivo
[30] = Clearance in Sprague-Dawley rat at 5 mg/kg, po measured after 24 hrs by LC-MS/MS analysis; type: ADME, organism-based; settings: in vivo
[31] = Oral bioavailability in Sprague-Dawley rat at 5 mg/kg measured after 24 hrs by LC-MS/MS analysis; type: ADME, organism-based; settings: in vivo
[32] = In vivo inhibition of IDH1 mutant in female nude mouse xenografted with human HT-1080 cells assessed as reduction in 2-HG levels in tumor at 40 mg/kg, ip administered twice at 1 hrs interval by resazurin fluorescence dye based Sigma MAK320-1 assay kit analysis relative to control; type: functional
[33] = system: HT-1080; assay: Antitumor activity against human HT-1080 cells xenografted in female nude mouse assessed as suppression of tumor growth at 40 mg/kg, ip administered every 2 days for 8 days; type: functional, organism-based; settings: time 8.0 day
[34] = Toxicity in female nude mouse xenografted with human HT-1080 cells assessed as body weight loss at 40 mg/kg, ip administered every 2 days for 8 days; type: organism-based; settings: in vivo, 192 h, time 8 day

Chain of Isocitrate dehydrogenase [NADP] cytoplasmic (O75874 2-414 R132H limits assumed): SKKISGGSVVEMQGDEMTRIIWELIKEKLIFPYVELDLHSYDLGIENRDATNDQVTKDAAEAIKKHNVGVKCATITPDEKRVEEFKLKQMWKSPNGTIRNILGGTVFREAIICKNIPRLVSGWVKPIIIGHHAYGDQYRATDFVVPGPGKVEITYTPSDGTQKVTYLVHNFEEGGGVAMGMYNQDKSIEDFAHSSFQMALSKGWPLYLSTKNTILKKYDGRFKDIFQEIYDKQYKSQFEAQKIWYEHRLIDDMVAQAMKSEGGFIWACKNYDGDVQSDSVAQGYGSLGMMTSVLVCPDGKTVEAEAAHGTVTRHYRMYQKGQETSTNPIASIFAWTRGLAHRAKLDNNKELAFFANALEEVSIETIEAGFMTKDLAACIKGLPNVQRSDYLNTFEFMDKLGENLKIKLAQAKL
Chain of Isocitrate dehydrogenase [NADP] cytoplasmic (Homo sapiens), O75874 [R132C] (O75874 whole entry R132C): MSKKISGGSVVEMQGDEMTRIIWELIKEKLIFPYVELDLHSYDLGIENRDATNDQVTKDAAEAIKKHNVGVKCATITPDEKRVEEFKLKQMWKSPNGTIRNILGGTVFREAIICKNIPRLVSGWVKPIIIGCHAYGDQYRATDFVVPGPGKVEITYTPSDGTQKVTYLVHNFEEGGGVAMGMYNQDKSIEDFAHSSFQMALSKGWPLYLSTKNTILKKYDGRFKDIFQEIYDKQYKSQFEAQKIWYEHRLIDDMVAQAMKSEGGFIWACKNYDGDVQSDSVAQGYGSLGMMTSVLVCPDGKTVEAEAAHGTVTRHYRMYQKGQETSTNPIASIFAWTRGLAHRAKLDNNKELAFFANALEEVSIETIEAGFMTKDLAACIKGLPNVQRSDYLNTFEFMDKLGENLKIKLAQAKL
Chain of Isocitrate dehydrogenase [NADP] cytoplasmic (Homo sapiens), O75874 [R132H] (O75874 whole entry R132H): as the sequence (O75874 whole entry R132C) above, with C132H counted along it

COc1cc(O)c(-c2cc(-c3ccc(O)cc3)nc(N3CCNCC3)n2)cc1CC=C(C)C
Activity [1]: 21.9%
Activity [2]: 32.3%
inhibition [3]: 75.4%
inhibition [4]: 65.9%
EC50 [5]: 182 nM
Activity [6]: Non-Toxic
GC50 [7]: 6910 nM
Activity [8]: 5.1%
viability at 4 µM [9]: 83.7%
viability at 8 µM [10]: 69.6%
Activity [11]: 4.66%
Activity [12]: 0.62%
viability at 6 µM [13]: 87.3%
viability at 6 µM [14]: 80.8%
Activity [15]: 11.25%
Activity [16]: 6.57%
Activity [17]: 55.7%
Activity [18]: 56.1%
Activity [19]: 22.9%
Activity [20]: 51.8%
Activity [21]: 15.9%
Activity [22]: 45.4%
Activity [23]: Non-Toxic
Activity [24]: Non-Toxic
Cmax [25]: 766 ng/mL
clearance [26]: 27.3 mL/min/kg
Tmax [27]: 11.4 min
Cmax [28]: 478 ng/mL
AUC(0-t) at 24 h [29]: 370 ng·h/mL
CL/F [30]: 168 mL/min/kg
bioavailability [31]: 16.8%
inhibition in vivo at 40 mg/kg [32]: 96%
Activity [33]: Active
Activity [34]: Non-Toxic
